US20140094446A1, “Cyclic Amino Acids for the Treatment of Pain” (Therexcell Pharma Inc., priority 2008, published 2014)
Entries after “also recorded” stand apart in the source; their conditions may differ. Marks after values point to notes of the source that are not given here.

How the values were obtained:
[1] = tested on: mice; test: Sedation observed during the formalin foot test, intrathecal application
Description: At the same time as the analgesia was accessed, the sedation effects of ACBC were determined in the acute and chronic peripheral pain formalin foot model. […] The mice were monitored for 40 min for sedation. aCSF and morphine controls were also tested. The presence or absence of sedation was determined by an observer blinded to the treatment based on degree of spontaneous activity, posture and response to normal stimuli.

[2] = tested on: formalin foot mice; test: Formalin foot acute and chronic peripheral pain model, intrathecal application
[3] = tested on: Neurons of the ventrobasal nuclei (thalamocortical neurons); test: Current- and voltage-clamp recording of thalamic neurons in in vitro slice preparations; conditions: for equilibrium potential for the drug (intersection of drug and control I-V curves): voltage clamp, vs aCSF control curve
[4] = tested on: formalin foot mice; test: Formalin foot acute and chronic peripheral pain model, subcutaneous injection, up and down method; type: in vivo; conditions: Mus musculus, sc; subcutaneously, 5 minutes prior to formalin; up and down method of Dixon and Mood; block = 60% decrease of cumulated licking; read-out: ED50 for the reduction of paw licking by 60%
Description: This model involves pre-treatment with the test compound and injection of formalin (5% in 20 microliters) into the right hindpaw of mice. ACBC was injected subcutaneously 5 minutes prior to formalin injection. […] The up and down method of Dixon and Mood was used to establish the ED50.

[5] = ACBC 5 μL of 250 μM 5 minutes before formalin 5% in 20 μL hindpaw, N=5, P<0.05 vs control
[6] = ACBC 1 μM, normalized to control 5 minutes prior to drug application, single neuron

Compound | sedation / gross appearance and behavior (in words) ([1]; intrathecal, acute and chronic phase of formalin foot test) | Number of mice with sedation ([1]; of 5 mice, intrathecal (ACBC 5 μL of 250 μM), monitored 40 min, blinded observer) | phase I licking (early phase, acute pain) [2, 5] | slope of the I-V curve ([3]; Glycine 150 μM) | equilibrium potential for the drug (intersection of drug and control I-V curves) ([3]; Glycine 150 μM) [mV] | slope of the I-V curve ([3]; ACBC 1 μM) | holding current 20 minutes after application ([3]; ACBC 1 μM, 3 min application, voltage-clamped at −60 mV, control 33 pA) [pA] | Input resistance (Ri) [3, 6] | Membrane potential (Vm) [3, 6] | tonic firing evoked by current pulse injection ([3]; ACBC 1 μM, ventrobasal thalamus, holding potential −60 mV) | equilibrium potential for the drug (intersection of drug and control I-V curves) ([3]; ACBC 1 μM) [mV] | persistence of induced outward current ([3]; voltage clamped neurons) | behavioral toxicity ([1]; mouse, in vivo) | sedation / gross appearance and behavior (in words) ([1]; mouse, in vivo) | Number of mice with sedation ([1]; mouse, in vivo, 40 min) | phase II licking (late phase, chronic pain) [2, 5] | cumulative paw licking ([2]; ACBC 5 μL of 250 μM, monitored 40 minutes, p<0.05) | analgesia compared with morphine, acute and chronic phases ([2]; formalin foot test) | ED50 [4] [mg/kg]
CN1CC[C@]23c4c5ccc(O)c4O[C@H]2[C@@H](O)C=C[C@H]3[C@H]1C5 [Morphine, reference compound] | nearly immobile | 5 | Morphine <control | – | – | – | – | – | – | – | – | – | – | – | – | – | – | – | –
NCC(=O)O [Glycine, reference compound] | – | – | – | increased the slope of the I-V curve | −53 | – | – | – | – | – | – | – | – | – | – | – | – | – | –
NC1(C(=O)O)CCC1 [ACBC, 1-amino-cyclobutane-1-carboxylic acid] | – | – | significantly reduced; also recorded: greatly reduces | – | – | increased the slope of the I-V curve | 153 | increase in membrane input resistance; also recorded: decreased | decreased | depressed action potential firing; also recorded: depressed tonic firing | −92 | greater than 60 minutes | no observed behavioral toxicity | No sedation occurred | 0* | significantly reduced; also recorded: greatly reduces | significantly reduced | equal to that produced by morphine | 94
